# In US20060153844A1, “Methods to trigger, maintain and manipulate immune responses by targeted administration of biological response modifiers into lymphoid organs” (priority 2004, published 2006):
# Entries after “also recorded” stand apart in the source; their conditions may differ.
# Experiments:
# DCs = experiment: activation of lymph node DCs, up-regulation of CD80 and CD86 (flow cytometry); format: in vivo, C57BL/6 mice
# Description: To assess CpG-induced activation of professional APCs, C57BL/6 mice received titrated amounts of CpG ODN 1668pt either subcutaneously by injection into the inguinal region or by direct injection into the inguinal lymph node. After one day the inguinal lymph nodes were collected and DCs were isolated by Collagenase D digestion and positive isolation using anti-CD11c magnetic beads. Activation of DCs was assessed by measuring up-regulation of CD80 and CD86 (FIGS. 3A and B). Values represent the mean fluorescence intensity (MFI) measured by flow cytometry. As control, mice were immunized i.ln. with saline solution. Lymph node cells pooled from three mice per group were used for the analysis. At least 1.5×10^4 CD11c^+ cells were acquired per condition. […] Note that an intralymphatic control injection with saline induced slight upregulation of CD80 and CD86. This may be explained by the physical lymph node damage produced by the needle. Thus, although both sites of injection are very close to each other, direct intralymphatic administration reduced the dose of CpG that is necessary for DC maturation by 10-50 fold.
# [1] = tested on: EL-4 target cells pulsed with the ovalbumin peptide epitope; experiment: direct ex vivo CTL activity, 51Cr-release assay after OVA plus CpG; format: in vivo, C57BL/6 mice; conditions: seven days later
# Description: The optimal intralymphatic dose of CpG for CTL induction was evaluated and compared to the optimal subcutaneous dose. C57BL/6 mice were injected with OVA alone or in combination with CpG ODN 1668pt. CD8 T cell responses were tested for direct ex vivo CTL activity seven days later using ^51Cr-release assays on EL-4 target cells pulsed with the ovalbumin peptide epitope (SEQ. ID. No. 2) at various effector to target cell ratios. Two dilution series of effector cells per mouse were performed. The means±SEM (n=3) are shown (see FIG. 4). […] The CTL activity was correlated with the frequency of CD8 lymphocytes staining positive for intracellular IFN-γ as measured by flow cytometry (data not shown).
# PLA2-specific IgG = PLA2-specific IgG by ELISA after PLA2 plus titrated CpG; format: in vivo, CBA/J mice
# Description: The doses of CpG required to enhance Th1-dependent IgG immune responses against an allergen, and whether intralymphatic administration could reduce the required dose of CpG were evaluated. PLA2, the major allergen from bee venom, was used as a model allergen. CBA/J mice were immunized biweekly with […] ODN-1668pt together with 0.1 μg of PLA2 either intralymphatically (A) or subcutaneously (B). Three weeks after the third injection, sera of mice were collected and PLA2-specific IgG was determined by ELISA (FIG. 9). Values represent means and standard deviations obtained from three mice per group. One representative of two similar experiments is shown.
# splenocyte = conditions: mouse, in vivo, sc
# Description: C57BL/6 mice were treated with different doses of CpG and euthanized 8 days later for analysis of the spleen. […] The means±SEM (n=3) are shown. […] The means±SEM (n=3) are shown.
# [2] = tested on: PLA2-specific IgG2a and IgG1 antibodies; experiment: anti-PLA2 IgG2a, IgG1 and IgE in sera after intralymphatic PLA2 plus TLR ligand; format: in vivo, CBA/J mice; conditions: for kinetics of the antibody production (time of maximum titers): i.ln. with 0.1 μg PLA2, sera over 13 weeks; for anti-PLA2 antibody isotypes induced (IgG2a, IgG1): i.ln. with 0.1 μg PLA2, three injections; for sero-conversion: seven weeks after the first and three weeks after last injection, i.ln. with 0.1 μg PLA2
# Description: The compounds were mixed within an hour before injection into the inguinal lymph node.
# The sera were obtained over 13 weeks and analyzed by ELISA for anti-PLA2 IgG2a (FIG. 10A) and IgG1 (FIG. 10B). The ratio of IgG2a to IgG1 titers was calculated as a measure for Th1/Th2 immune response balance (FIG. 10C). […] Pre-immunization levels of anti-PLA2 antibodies were measured on sera from five mice taken the day before first injection.
# [3] = tested on: CD4 or CD8 positive lymphocytes; experiment: intracellular IFN-γ in spleen CD4 and CD8 T cells by flow cytometry; format: in vivo, CBA/J mice; conditions: two weeks after further boost of PLA2 and adjuvant; percentage and absolute number
# Description: Two weeks later spleen cells were isolated, and analysed directly for intracellular IFN-γ by flow cytometry (FIG. 11) or analyzed for IFN-γ, IL-4 and IL-10 secretion by ELISA after four days cultivation with 10 μg/ml PLA2 (FIG. 12). For FIG. 11, intracellular IFN-γ was measured by flow cytometry after four hours stimulation of cells with PdBu and ionomycin (both at 500 ng/ml) in the presence of brefeldin A (10 μg/ml). The cells were then incubated with anti-CD16/CD32 for Fc-recptor blocking and stained on ice and in PBS/FCS 2% with fluorescent-labelled Abs against CD4, CD8 and CD44 (all Abs from BD Biosciences (Franklin Lakes, N.J.). Cells were subsequently fixed with 4% paraformaldehyde and permeabilised with 0.1% Nonidet P-40 before staining with Ab against IFN-γ. Four-color cytometry were performed on a FACSCalibur flow cytometer (BD Biosciences, San Jose, Calif.). Cells were gated on CD4 or CD8 positive lymphocytes and the results expressed as means (±S.D.) for three mice, as percent of T-cell subset (A) or as absolute numbers in the spleen (B). One representative out of two immunization experiments is shown. […] Supernatants were collected after 96 hours incubation and IL-4, IL-10 and IFN-γ concentrations determined by ELISA from R&D Systems (Abingdon, United Kingdom). […]
# splenocytes = experiment: IFN-γ, IL-4 and IL-10 secretion of splenocytes cultured with PLA2 (ELISA); format: in vivo, CBA/J mice; conditions: for IFN-γ secreted (ELISA): versus LPS or 3M003 P<0.01
# Description: Two weeks later spleen cells were isolated, and analysed directly for intracellular IFN-γ by flow cytometry (FIG. 11) or analyzed for IFN-γ, IL-4 and IL-10 secretion by ELISA after four days cultivation with 10 μg/ml PLA2 (FIG. 12). For FIG. 11, intracellular IFN-γ was measured by flow cytometry after four hours stimulation of cells with PdBu and ionomycin (both at 500 ng/ml) in the presence of brefeldin A (10 μg/ml). The cells were then incubated with anti-CD16/CD32 for Fc-recptor blocking and stained on ice and in PBS/FCS 2% with fluorescent-labelled Abs against CD4, CD8 and CD44 (all Abs from BD Biosciences (Franklin Lakes, N.J.). Cells were subsequently fixed with 4% paraformaldehyde and permeabilised with 0.1% Nonidet P-40 before staining with Ab against IFN-γ. Four-color cytometry were performed on a FACSCalibur flow cytometer (BD Biosciences, San Jose, Calif.). Cells were gated on CD4 or CD8 positive lymphocytes and the results expressed as means (±S.D.) for three mice, as percent of T-cell subset (A) or as absolute numbers in the spleen (B). One representative out of two immunization experiments is shown. For FIG. 12, after homogenisation of spleens and lysis of red blood cells, 5×10^5 splenocytes were cultured with […] PLA2 protein in 200 μl IMDM (Gibco) supplemented with L-glutamine (4 mM), FCS (10%), mercaptoethanol (75 μM), as well as streptomycin and ampicillin. Supernatants were collected after 96 hours incubation and IL-4, IL-10 and IFN-γ concentrations determined by ELISA from R&D Systems (Abingdon, United Kingdom). Cytokine concentrations in supernatants as determined by ELISA after subtraction of spontaneous cytokine secretion was determined upon in vitro stimulation with an irrelevant antigen (ovalbumin). Statistical differences between the different groups were indicated when significant (P<0.01). One representative out of two immunization experiments is shown.
# [4] = of the 17 patients receiving IL-12 in the phase II study; cited from earlier work
# CD8+ T cell population = experiment: tetramer and CD8 double staining after intranodal Melan-A peptide plus BRM; format: in vivo; conditions: for immune response by tetramer staining: intranodal Melan-A peptide alone, plus 0.1 nmole CpG ODN or plus 25 μg polyI:C, days 0, 3, 14 and 17
# Excerpt: H-2 class I-negative, HLA-A2.1-transgenic (HHD-1) mice (Pascolo, S., et al., J Exp Med. 185:2043-2051, 1997 (which is incorporated herein in its entirety)) were housed under pathogen-free conditions and used for evaluation of the immunogenicity of HLA-A2.1-restricted human tumor-associated cytotoxic T lymphocyte (CTL) epitopes. Female mice 8-12 weeks of age were used for intralymphatic immunization and for isolation of splenocytes for in vivo cytotoxicity studies. […] A total of four rounds of injections were given, on days 0, 3, 14 and 17.
# The immune response was measured by tetramer and CD8 double staining of splenocytes from the immunized mice. Mononuclear cells isolated from peripheral blood after density centrifugation (Lympholyte Mammal, Cedarlane Labs) with HLA-A*0201 MART1 (SEQ. ID. No. 3)-PE MHC tetramer (Beckman Coulter) and FITC conjugated rat anti-mouse CD8a (Ly-2) monoclonal antibody (BD Biosciences). Data was collected using a BD FACS Calibur flow cytometer and analysed using Cellquest software by gating on the lymphocyte population and calculating the percent of tetramer^+ cells within the CD8^+ CTL population. The results (see FIG. 5) were expressed as means±SEM of % tetramer stained cells within the CD8+ T cell population (A), and with specific dot plot plots representative for each group (B). Splenocytes from naive transgenic mice were included as controls.
# [5] = tested on: Human melanoma tumor target cells, 624.38 (Melan-A^+, HLA-A2^+); experiment: in vivo clearance of human melanoma tumor cells from pulmonary tissue; set-up: species or system HHD-1 mice; conditions: mice immunized intranodally as in Example 4, challenged i.v. with 624.38 cells
# Description: The effectiveness of CTL generated as described in Example 4 was assessed as in vivo clearance of tumor cells from pulmonary tissue in mice challenged with Melan-A^+ tumor cells. Human melanoma tumor target cells, 624.38 (Melan-A^+, HLA-A2^+) were cultured in RPMI medium supplemented with 10% fetal bovine serum (Hyclone), 0.1 mM non-essential amino acids, and 0.3 mg/mL L-glutamine in a 5% CO2 incubator at 37° C. The HLA-A2^− subclone, 624.28, was grown under the same conditions and served as a negative control. Specific targets were prepared by incubating 10^8 624.38 cells with 2.5 μM CFSE in PBS for 20 minutes (CFSE^hi) and 10^8 HLA-A2^−, 624.28 target controls were labelled with 0.25 μM CFSE (CFSE^lo). Each immunized HHD-1 mouse was intravenously injected in the tail vein with a mixture of 10^7 CFSE^hi 624.38 and 10^7 CFSE^lo 624.28 cells followed by an identical injection 3 hours later. Un-immunized HHD-1 mice were also injected and served as naïve controls. […] The mononuclear cells were then isolated by density centrifugation and CFSE positive cells were analysed by FACS. The in vivo specific lysis of human melanoma target cells in the lung was calculated by the following formula: [(1−% CFSE^hi/% CFSE^lo)−(1−% CFSE^hiControl/% CFSE^loControl)]
# [6] = tested on: ^51Cr-labeled target cells (T2 cells); experiment: standard cytotoxic assay after intranodal peptide plus polyI:C; format: in vivo, HHD-A2 transgenic mice; conditions: 12.5 μg peptide+12.5 μg polyI:C per inguinal lymph node, day 0, 3, 14 and 17; targets pulsed with peptide or tumor cells
# Description: HHD-A2 transgenic mice (n=4/group) were immunized with various peptides (see Table 1) admixed with polyI:C, by direct inoculation into the inguinal lymph nodes (12.5 μg peptide+12.5 μg of adjuvant, in 25 μl of PBS/each inguinal lymph node at day 0, 3, 14 and 17). One week after the final administration, splenocytes were stimulated ex vivo with 10 μg/ml of peptide in presence of 5 U/ml of rIL-2 and tested in a standard cytotoxic assay, against ^51Cr-labeled target cells (T2 cells) uncoated or coated with cognate peptide, at various Effector:Target ratios. Alternatively, in the case of PSMA 288-297 epitope, cytotoxicity was measured against PSMA expressing human tumor cells (LNCap) cells coated or not with 10 μg/ml of MHC class I blocking antibody (W6/32). Cytotoxicity resulting from immunization with the NY-ESO-1 157-165 epitope was also assessed against 624.28 and 624.38 cells that had been transformed to express a GFP/NY-ESO-1 fusion protein.
substance,measurement,setting,value
"CpG ODN 1668pt: CpG ODN 1668pt (SEQ. ID. No. 1), unmethylated CpG oligodeoxynucleotide, TLR9 ligand (DNA TCCATGACGTTCCTGAATAAT; DNA, backbone not given here)",expression of CD80 and CD86 on DCs,"DCs; 10 and 1 nmol, regardless of the route, after one day",significantly enhanced expression of CD80 and CD86
same,reduction of the dose of CpG necessary for DC maturation,DCs; direct intralymphatic versus subcutaneous administration,10-50 fold
same,DC maturation,"DCs; low CpG doses of 0.1 and 0.01 nmol, i.ln. versus s.c.",only direct injection into the inguinal lymph node induced significant DC maturation
same,CTL activity,[1]; subcutaneous vaccination with OVA plus CpG,did not elicit CTL activity
same,CTL activity,[1]; vaccinated intralymphatically with OVA plus CpG,significant induction of cytotoxic CD8 T cells even at 0.01 nmol CpG
same,PLA2-specific antibody responses,"PLA2-specific IgG; intralymphatic, high CpG dose of 10 nmol",no antibody responses were detectable
same,PLA2-specific antibody titers,"PLA2-specific IgG; intralymphatic, low CpG doses of 0.1 and 0.01 nmol",highest antibody titers
same,"PLA2-specific IgG, adjuvant effect","PLA2-specific IgG; subcutaneously, CpG 0.1 and 0.01 nmol",an adjuvant effect was no longer detectable
same,PLA2-specific IgG titers,"PLA2-specific IgG; subcutaneously, CpG doses of 10 and 1 nmol with 0.1 μg PLA2",highest IgG titers
same,changes of B lymphocytes in spleen,splenocyte,Only moderate changes
same,relative amounts of CD4 and CD8 T cells as well as NK cells,splenocyte,substantially reduced in a dose-dependent manner
"CpG: phosphorothioate-modified CpG ODN 1826 (SEQ. ID. No. 10), TLR 9 ligand, Examples 8 and 9 (DNA TCCATGACGTTCCCTGACGTT; DNA, all phosphorothioate, methylation of C not given here)",serum concentration of IgG1 relative to the titers induced by LPS or PolyI:C,"[2]; geometrically, 10 and 13 weeks",30-50%
same,kinetics of the antibody production (time of maximum titers),[2],a delay in the IgG1 antibody production
same,"anti-PLA2 antibody isotypes induced (IgG2a, IgG1)",[2],induced IgG2a
same,IgG1 in seven-week sera,[2]; seven weeks after initiating immunization,hardly detectable
same,sero-conversion,[2],notable sero-conversion
same,IFN-γ producing CD8-positive and CD4-positive T cells,[3],strongest effect
same,IL-4 secretion,splenocytes; compared with 3M003 and PolyI:C (P<0.01) or LPS (P<0.05),significantly reduced IL-4 secretion
same,IL-10 production,splenocytes; splenocytes cultured with PLA2,the strongest IL-10 production
same,IFN-γ secreted (ELISA),splenocytes; splenocytes cultured with PLA2,highest amounts of IFN-γ
IL-12: co-stimulatory cytokine,patients died,[4],2 patients
same,patients hospitalized,[4],12 patients
"Melan-A peptide: Melan-A peptide (SEQ. ID. No. 3), A27L analogue of the A2-restricted Melan-A 26-35 epitope",immune response by tetramer staining,CD8+ T cell population,readily detectable response by tetramer staining; also recorded: not very effective in inducing a robust T cell population expansion
peptidoglycan,kinetics of the antibody production (time of maximum titers),[2],peak titers were delayed
same,"anti-PLA2 antibody isotypes induced (IgG2a, IgG1)",[2],induced predominantly IgG2a
polyriboinosinic polyribocytidylic acid [polyI:C],immune response by tetramer staining,CD8+ T cell population,robust antigen specific response
same,"systemic acute phase reaction, mortality or morbidity at the dose used","CD8+ T cell population; intranodal, 0.1 nmole CpG ODN or 25 μg polyI:C",not associated with observed mortality or morbidity
same,in vivo lysis of human melanoma target cells in the lung,[5],substantial lytic activity
same,cytotoxic response,[6],triggered a specific cytotoxic response
same,kinetics of the antibody production (time of maximum titers),[2],maximum levels of antibodies within three weeks of the final boost injection
same,"anti-PLA2 antibody isotypes induced (IgG2a, IgG1)",[2],high antibodies titers of both IgG1 and IgG2a isotypes
same,sero-conversion,[2],notable sero-conversion
same,IFN-γ secreted (ELISA),splenocytes; splenocytes cultured with PLA2,highest amounts of IFN-γ
